Reference: US20250213574A1, “THERAPEUTIC COMBINATIONS COMPRISING UBIQUITIN- SPECIFIC-PROCESSING PROTEASE 1 (USP1) INHIBITORS AND CHEMOTHERAPY AGENTS” (KSQ Therapeutics, Inc., priority 2022, published 2025)
Where two headings read alike, the source gives them in different places.

Experiments:
Assay type in all cases: cell-based
OVSAHO = assay: Colony formation (CFU) assay, OVSAHO; conditions: Homo sapiens, 336 h, ovary, CFU ~14 days, wells with DMSO or 300 nM Compound 1, read-out: Chemotherapy nM IC50s
Method: (§1) In vitro experiments were conducted using the colony formation unit (CFU) assay on various cell lines. The CFU assay involved first establishing what cell plating density enabled the development of clearly interspersed colonies on a six-well plate when left to grow for around 14 days. […] At or around day 14 when clearly interspersed colonies were visible in the DMSO-treated wells, the cells were fixed and stained using 0.1% crystal violet in 10% ethanol for 20 minutes at room temperature. The plates were imaged then the amount of crystal violet stain in each well was quantified by extracting the crystal violet into 10% acetic acid and the absorbance measured at 565 nm.
(§2) For certain cell lines, multiple IC50 values were taken, and those are separated by commas. Synergy scores are in parentheticals.

NCIH2452 = assay: Colony formation (CFU) assay, NCIH2452; conditions: Homo sapiens, NCI-H2452, 336 h; NCIH2452, pleura; CFU ~14 days; wells with DMSO or 300 nM Compound 1; read-out: Chemotherapy nM IC50s
Method: as §1, §2

UWB1289 = assay: Colony formation (CFU) assay, UWB1289; conditions: 336 h; UWB1289, ovary; CFU ~14 days; wells with DMSO or 300 nM Compound 1; read-out: Chemotherapy nM IC50s
Method: as §1, §2

MSTO211H = assay: Colony formation (CFU) assay, MSTO211H; conditions: pleura, CFU ~14 days, wells with DMSO or 300 nM Compound 1, read-out: Chemotherapy nM IC50s
Method: as §1, §2

MERO14 = assay: Colony formation (CFU) assay, MERO14; conditions: CFU ~14 days, wells with DMSO or 300 nM Compound 1, read-out: Chemotherapy nM IC50s
Method: as §1, §2

KALS1 = assay: Colony formation (CFU) assay, KALS1; conditions: Homo sapiens, KALS-1, 336 h; KALS1, nervous system; CFU ~14 days; wells with DMSO or 300 nM Compound 1; read-out: Chemotherapy nM IC50s
Method: as §1, §2

ACCMESO1 = assay: Colony formation (CFU) assay, ACCMESO1; conditions: ACC-MESO-1, 336 h; ACCMESO1, pleura; CFU ~14 days; wells with DMSO or 300 nM Compound 1; read-out: Chemotherapy nM IC50s
Method: as §1, §2

HCC1937 = assay: Colony formation (CFU) assay, HCC1937; conditions: HCC1937, breast, CFU ~14 days, wells with DMSO or 300 nM Compound 1, read-out: Chemotherapy nM IC50s
Method: as §1, §2

COV362 = assay: Colony formation (CFU) assay, COV362; conditions: 336 h; COV362, ovary; CFU ~14 days; wells with DMSO or 300 nM Compound 1; read-out: Chemotherapy nM IC50s
Method: as §1, §2

NCIH1915 = assay: Colony formation (CFU) assay, NCIH1915; conditions: NCIH1915, lung, CFU ~14 days, wells with DMSO or 300 nM Compound 1, read-out: Chemotherapy nM IC50s
Method: as §1, §2

BECKER = assay: Colony formation (CFU) assay, BECKER; conditions: CFU ~14 days, wells with DMSO or 300 nM Compound 1, read-out: Chemotherapy nM IC50s
Method: as §1, §2

U251MG = assay: Colony formation (CFU) assay, U251MG; conditions: nervous system, CFU ~14 days, wells with DMSO or 300 nM Compound 1, read-out: Chemotherapy nM IC50s
Method: as §1, §2

NCIH1650 = assay: Colony formation (CFU) assay, NCIH1650; conditions: NCIH1650, lung, CFU ~14 days, wells with DMSO or 300 nM Compound 1, read-out: Chemotherapy nM IC50s
Method: as §1, §2

SUM149PT = assay: Colony formation (CFU) assay, SUM149PT; conditions: breast
Method: as §1, §2

HCC1806 = assay: Colony formation (CFU) assay, HCC1806; conditions: HCC1806, breast, CFU ~14 days, wells with DMSO or 300 nM Compound 1, read-out: Chemotherapy nM IC50s (converted)
Method: as §1, §2

647V = assay: Colony formation (CFU) assay, 647V; conditions: Homo sapiens, 336 h, bladder, CFU ~14 days, wells with DMSO or 300 nM Compound 1, read-out: Chemotherapy nM IC50s
Method: as §1, §2

HPAC = assay: Colony formation (CFU) assay, HPAC; conditions: Homo sapiens, 336 h, pancreas, CFU ~14 days, wells with DMSO or 300 nM Compound 1, read-out: Chemotherapy nM IC50s
Method: as §1, §2

MDAMB231 = assay: Colony formation (CFU) assay, MDAMB231; conditions: MDAMB231, breast, CFU ~14 days, wells with DMSO or 300 nM Compound 1, read-out: Chemotherapy nM IC50s
Method: as §1, §2

A549 = assay: Colony formation (CFU) assay, A549; conditions: Homo sapiens, 336 h; A549, lung; CFU ~14 days; wells with DMSO or 300 nM Compound 1; read-out: Chemotherapy nM IC50s
Method: as §1, §2

CAPAN2 = assay: Colony formation (CFU) assay, CAPAN2; conditions: CAPAN2, pancreas, CFU ~14 days, wells with DMSO or 300 nM Compound 1, read-out: Chemotherapy nM IC50s
Method: as §1, §2

## COc1cccc2c1C(=O)c1c(O)c3c(c(O)c1C2=O)C[C@@](O)(C(=O)CO)C[C@@H]3O[C@H]1C[C@H](N)[C@H](O)[C@H](C)O1 [Dox., doxorubicin]
OVSAHO
  IC50: 147 nM
NCIH2452
  IC50: 21 nM
UWB1289
  IC50: 76 nM
MSTO211H; Homo sapiens, MSTO-211H, 336 h
  IC50: 16 nM
MSTO211H
  IC50: 8 nM
MERO14; 336 h
  IC50: 17 nM
MERO14
  IC50: 14 nM
KALS1
  IC50: 52 nM
ACCMESO1
  IC50: 19 nM
HCC1937
  IC50: 4 nM
HCC1937; Homo sapiens, HCC1937, 336 h
  IC50: 8 nM
COV362
  IC50: 108 nM

## COc1cc([C@@H]2c3cc4c(cc3[C@@H](O[C@@H]3O[C@@H]5CO[C@@H](C)O[C@H]5[C@H](O)[C@H]3O)[C@H]3COC(=O)[C@H]23)OCO4)cc(OC)c1O [Etop., etoposide]
NCIH1915
  IC50: 500 nM
BECKER
  IC50: 837 nM
U251MG
  IC50: 583 nM
NCIH1650
  IC50: 270 nM

## Nc1ccn([C@@H]2O[C@H](CO)[C@@H](O)C2(F)F)c(=O)n1 [Gem., gemcitabine]
SUM149PT; Homo sapiens, 336 h, CFU ~14 days, wells with DMSO or 300 nM Compound 1, read-out: Chemotherapy nM IC50s
  IC50: 1 nM
SUM149PT; chemotherapy agent in combination with 300 nM Compound 1
  synergy score: (−1)
HCC1806; Homo sapiens, 336 h
  IC50: < 1 nM
647V
  IC50: 2 nM

## CC(=O)O[C@H]1C(=O)[C@@]2(C)[C@H]([C@H](OC(=O)c3ccccc3)[C@]3(O)C[C@H](OC(=O)[C@H](O)[C@@H](NC(=O)c4ccccc4)c4ccccc4)C(C)=C1C3(C)C)[C@]1(OC(C)=O)CO[C@@H]1C[C@@H]2O [Pacli., paclitaxel]
NCIH1915; NCI-H1915, 336 h
  IC50: < 1 nM
OVSAHO
  IC50: 78 nM
UWB1289
  IC50: 43 nM
HPAC
  IC50: 3 nM
MDAMB231; Homo sapiens, MDA-MB-231, 336 h
  IC50: 1 nM
MDAMB231
  IC50: < 1 nM
HCC1806
  IC50: < 1 nM
HCC1806; Homo sapiens, HCC1806, 336 h
  IC50: 1 nM
A549
  IC50: 2 nM
NCIH1650; Homo sapiens, NCI-H1650, 336 h
  IC50: 1 nM
NCIH1650
  IC50: < 1 nM
CAPAN2
  IC50: < 1 nM
CAPAN2; Homo sapiens, Capan-2, 336 h
  IC50: 2 nM
COV362
  IC50: 13 nM
